Source: ChEMBL document CHEMBL4476883, “Hydroxy formamide derivatives and their use” (2017)

Key:
[1] = biological target: T1, Bone morphogenetic protein 1 (Homo sapiens, UniProt P13497); test: Inhibition of C-terminal FLAG-6x-His epitope tagged and N-terminal human RAGE signal sequence tagged human BMP1 (23 to 721 amino acids) expressed in CHO-E1A cells pre-incubated for 10 mins before promyostatin peptide substrate addition and measured after 30 mins using 50 nM BMP1 by FRET based assay; assay type: cell-based
T1 sequence (P13497 whole entry): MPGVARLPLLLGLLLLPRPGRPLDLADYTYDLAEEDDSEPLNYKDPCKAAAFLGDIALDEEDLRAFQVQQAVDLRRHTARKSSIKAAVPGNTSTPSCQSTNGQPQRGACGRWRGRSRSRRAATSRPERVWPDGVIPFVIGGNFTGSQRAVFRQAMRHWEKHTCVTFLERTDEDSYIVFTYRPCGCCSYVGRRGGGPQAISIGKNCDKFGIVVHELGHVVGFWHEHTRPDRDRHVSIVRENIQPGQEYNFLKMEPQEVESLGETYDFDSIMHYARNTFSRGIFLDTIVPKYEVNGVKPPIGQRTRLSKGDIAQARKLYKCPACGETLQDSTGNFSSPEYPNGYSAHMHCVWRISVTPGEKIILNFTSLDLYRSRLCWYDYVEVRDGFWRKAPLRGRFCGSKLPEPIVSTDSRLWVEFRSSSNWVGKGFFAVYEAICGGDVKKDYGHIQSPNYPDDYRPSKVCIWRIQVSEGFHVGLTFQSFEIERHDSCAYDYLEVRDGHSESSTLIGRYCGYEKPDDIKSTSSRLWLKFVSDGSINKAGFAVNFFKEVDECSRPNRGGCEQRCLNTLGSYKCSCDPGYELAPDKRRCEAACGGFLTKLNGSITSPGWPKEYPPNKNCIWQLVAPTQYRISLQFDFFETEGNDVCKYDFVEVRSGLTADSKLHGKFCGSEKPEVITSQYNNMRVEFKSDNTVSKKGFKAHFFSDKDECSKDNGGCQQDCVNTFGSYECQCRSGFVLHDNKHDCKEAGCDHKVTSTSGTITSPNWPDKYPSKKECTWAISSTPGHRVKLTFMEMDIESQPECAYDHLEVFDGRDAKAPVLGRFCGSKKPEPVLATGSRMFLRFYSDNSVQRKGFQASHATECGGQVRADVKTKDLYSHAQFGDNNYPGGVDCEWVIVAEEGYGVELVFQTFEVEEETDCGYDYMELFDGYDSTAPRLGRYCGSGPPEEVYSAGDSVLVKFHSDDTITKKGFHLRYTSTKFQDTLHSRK

Tolloid-like protein 2 = biological target: T2, Tolloid-like protein 2 (Homo sapiens, UniProt Q9Y6L7); test: Inhibition of C-terminal Avi-6x-His epitope tagged and N-terminal human RAGE signal sequence tagged recombinant human TLL2 (26 to 1015 amino acids) expressed in CHOE1A cells incubated for 60 mins with promyostatin peptide substrate by FRET based assay; assay type: cell-based
T2 sequence (Q9Y6L7 whole entry): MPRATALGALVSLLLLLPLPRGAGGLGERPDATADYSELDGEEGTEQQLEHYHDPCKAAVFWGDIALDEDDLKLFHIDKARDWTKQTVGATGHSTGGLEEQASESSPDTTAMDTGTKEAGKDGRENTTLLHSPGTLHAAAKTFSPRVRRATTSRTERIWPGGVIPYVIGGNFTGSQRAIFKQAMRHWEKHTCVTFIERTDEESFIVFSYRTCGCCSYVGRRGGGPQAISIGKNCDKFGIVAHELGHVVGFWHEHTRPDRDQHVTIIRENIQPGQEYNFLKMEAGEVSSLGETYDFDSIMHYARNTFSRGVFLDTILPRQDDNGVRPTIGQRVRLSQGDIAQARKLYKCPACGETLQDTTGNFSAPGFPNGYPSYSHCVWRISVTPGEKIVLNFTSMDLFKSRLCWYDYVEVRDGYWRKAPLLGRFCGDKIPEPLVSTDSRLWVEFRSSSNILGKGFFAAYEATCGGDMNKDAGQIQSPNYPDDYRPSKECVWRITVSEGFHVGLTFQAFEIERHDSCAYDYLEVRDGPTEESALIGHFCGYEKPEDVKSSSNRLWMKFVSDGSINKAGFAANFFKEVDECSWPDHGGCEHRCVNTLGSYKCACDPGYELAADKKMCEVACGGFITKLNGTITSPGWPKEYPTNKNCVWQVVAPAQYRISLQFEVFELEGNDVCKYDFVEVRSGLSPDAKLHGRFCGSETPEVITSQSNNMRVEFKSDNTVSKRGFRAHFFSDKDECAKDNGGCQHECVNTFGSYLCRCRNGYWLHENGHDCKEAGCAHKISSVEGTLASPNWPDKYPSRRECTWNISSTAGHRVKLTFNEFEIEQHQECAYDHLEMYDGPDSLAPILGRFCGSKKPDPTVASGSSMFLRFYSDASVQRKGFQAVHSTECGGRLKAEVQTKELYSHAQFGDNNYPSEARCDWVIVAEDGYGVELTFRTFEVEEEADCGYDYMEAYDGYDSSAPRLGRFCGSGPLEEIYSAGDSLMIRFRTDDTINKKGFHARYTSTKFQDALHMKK

[2] = biological target: T1, Bone morphogenetic protein 1; test: Inhibition of C-terminal FLAG-6x-His epitope tagged and N-terminal human RAGE signal sequence tagged human BMP1 (23 to 721 amino acids) expressed in CHO-E1A cells pre-incubated for 10 mins before promyostatin peptide substrate addition and measured after 60 mins using 0.5 nM BMP1 by FRET based assay; assay type: cell-based
[3] = Reduction in PICP levels in human cardiac fibroblasts incubated for 24 to 48 hrs by ELISA; assay type: functional
Tolloid-like protein 1 = Tolloid-like protein 1 (Homo sapiens, UniProt O43897, I156V/N221S/V284A); test: Inhibition of recombinant human TLL1 I156V/N221S/V284A mutant expressed in CHOE1A cells pre-incubated for 10 mins before promyostatin peptide substrate addition and measured after 60 mins by FRET based assay; assay type: cell-based
Tolloid-like protein 1, sequence (O43897 148-1013 I156V/N221S/V284A limits assumed): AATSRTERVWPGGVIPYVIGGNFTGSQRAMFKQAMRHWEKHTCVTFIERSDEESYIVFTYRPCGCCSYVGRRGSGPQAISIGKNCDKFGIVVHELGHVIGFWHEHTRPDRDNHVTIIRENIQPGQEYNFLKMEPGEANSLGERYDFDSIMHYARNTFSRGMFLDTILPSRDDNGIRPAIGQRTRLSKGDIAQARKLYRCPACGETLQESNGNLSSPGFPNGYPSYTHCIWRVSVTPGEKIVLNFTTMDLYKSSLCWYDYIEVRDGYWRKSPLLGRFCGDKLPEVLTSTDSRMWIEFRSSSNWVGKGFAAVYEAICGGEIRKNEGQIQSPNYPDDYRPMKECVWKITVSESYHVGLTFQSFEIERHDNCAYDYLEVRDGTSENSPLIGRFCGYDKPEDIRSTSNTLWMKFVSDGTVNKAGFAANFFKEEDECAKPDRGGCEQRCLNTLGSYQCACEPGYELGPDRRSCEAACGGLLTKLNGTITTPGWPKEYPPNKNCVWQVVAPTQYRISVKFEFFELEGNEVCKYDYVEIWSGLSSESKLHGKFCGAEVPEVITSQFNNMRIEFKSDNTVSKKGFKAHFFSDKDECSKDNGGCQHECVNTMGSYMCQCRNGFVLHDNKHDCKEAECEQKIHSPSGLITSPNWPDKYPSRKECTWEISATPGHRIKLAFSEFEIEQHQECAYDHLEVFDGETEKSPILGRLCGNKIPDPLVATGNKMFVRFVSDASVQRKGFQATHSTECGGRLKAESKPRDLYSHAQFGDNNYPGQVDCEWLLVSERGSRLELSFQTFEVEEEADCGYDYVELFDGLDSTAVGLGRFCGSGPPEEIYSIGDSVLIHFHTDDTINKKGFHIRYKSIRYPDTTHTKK

IC50 [1] | IC50 (Tolloid-like protein 2) | IC50 [2] | IC50 (Tolloid-like protein 1) | Compound | IC50 [3]
< 0.251 µM | < 0.631 µM | < 0.126 µM | < 0.398 µM | CCCCC[C@@H](C(=O)NCNC(=O)c1cccc(-c2ccc(C(=O)O)c(OCC)c2)n1)[C@@H](CC)N(O)C=O | < 20 µM
< 0.251 µM | < 0.631 µM | < 0.126 µM | < 0.398 µM | CCCCC[C@@H](C(=O)NCNC(=O)c1cccc(-c2ccc(C3(C(=O)O)CC3)cc2)n1)[C@@H](CC)N(O)C=O | < 20 µM
< 0.251 µM | < 0.631 µM | < 0.126 µM | < 0.398 µM | CCCCC[C@H](CN(O)C=O)C(=O)NCNC(=O)c1cccc(-c2ccc(F)c(OC)c2)n1 | < 20 µM
< 0.251 µM | < 0.631 µM | < 0.126 µM | < 0.398 µM | O=CN(O)C[C@@H](CCc1ccccc1)C(=O)NCNC(=O)c1cccc(-c2ccccc2)n1 | < 20 µM
< 0.251 µM | < 0.631 µM | < 0.126 µM | < 0.398 µM | CCCCC[C@H](CN(O)C=O)C(=O)NCNC(=O)c1cccc(Oc2ccc(OC)nc2)c1 | < 20 µM
< 0.251 µM | < 0.631 µM | < 0.126 µM | < 0.398 µM | CCCCC[C@H](CN(O)C=O)C(=O)NCNC(=O)c1cccc(-c2cccc(OC)c2)c1F | < 20 µM
< 0.251 µM | < 0.631 µM | < 0.126 µM | < 0.398 µM | CCCCC[C@H](CN(O)C=O)C(=O)NCNC(=O)c1cccc(-c2cccc(OC)n2)n1 | < 20 µM
< 0.251 µM | < 0.631 µM | < 0.126 µM | < 0.398 µM | CCCCC[C@H](CN(O)C=O)C(=O)NCNC(=O)c1cccc(-c2ccc(C(F)(F)F)cc2)n1 | < 20 µM
< 0.251 µM | < 0.631 µM | < 0.126 µM | < 0.398 µM | CCCCC[C@H](CN(O)C=O)C(=O)NCNC(=O)c1ccnc(-c2ccccc2)n1 | < 20 µM
< 0.251 µM | < 0.631 µM | < 0.126 µM | < 0.398 µM | CCCCC[C@@H](C(=O)NCNC(=O)c1cccc(-c2ccc(CC(=O)O)cc2)n1)[C@@H](CC)N(O)C=O | < 20 µM
< 0.251 µM | < 0.631 µM | < 0.126 µM | < 0.398 µM | CCCCC[C@H](CN(O)C=O)C(=O)NCNC(=O)c1cccc(-c2ccc(OC(F)(F)F)cc2)n1 | < 20 µM
< 0.251 µM | < 0.631 µM | < 0.126 µM | < 0.398 µM | CCCCC[C@H](CN(O)C=O)C(=O)NCNC(=O)c1cncc(-c2ccccc2)n1 | < 20 µM

More lines, now with the values behind:

Compound | IC50 [1] | IC50 (Tolloid-like protein 2) | IC50 [2] | IC50 (Tolloid-like protein 1) | IC50 [3]
CCCCC[C@@H](C(=O)NCNC(=O)c1cccc(-c2ccc(CC(=O)O)c(OCC)c2)n1)[C@@H](CC)N(O)C=O | < 0.251 µM | < 0.631 µM | < 0.126 µM | < 0.398 µM | < 20 µM
CCCCC[C@@H](C(=O)NCNC(=O)c1cccc(-c2ccc(C(=O)O)c(OCC)c2)c1)[C@@H](CC)N(O)C=O | < 0.251 µM | < 0.631 µM | < 0.126 µM | < 0.398 µM | < 20 µM
CCCCC[C@H](CN(O)C=O)C(=O)NCNC(=O)c1cc(C(F)(F)F)cc(-c2ccccc2)n1 | < 0.251 µM | < 0.631 µM | < 0.126 µM | < 0.398 µM | < 20 µM
CCCCC[C@H](CN(O)C=O)C(=O)NCNC(=O)c1cccc(-c2cccnc2)n1 | < 0.251 µM | < 0.631 µM | < 0.126 µM | < 0.398 µM | < 20 µM
CCCCC[C@H](CN(O)C=O)C(=O)NCNC(=O)c1cccc(-c2ccccc2)n1 | < 0.251 µM | < 0.631 µM | < 0.126 µM | < 0.398 µM | < 20 µM
CCCCC[C@H](CN(O)C=O)C(=O)NCNC(=O)c1cccc(-c2cccc(OC)c2)n1 | < 0.251 µM | < 0.631 µM | < 0.126 µM | < 0.398 µM | < 20 µM
CCCCC[C@@H](C(=O)NCNC(=O)c1cccc(-c2ccc(OC)c(C(=O)O)c2)n1)[C@@H](CC)N(O)C=O | < 0.251 µM | < 0.631 µM | < 0.126 µM | < 0.398 µM | < 20 µM
CCCCC[C@@H](C(=O)NCNC(=O)c1cccc(-c2ccc(F)c(C(=O)O)c2)n1)[C@@H](CC)N(O)C=O | < 0.251 µM | < 0.631 µM | < 0.126 µM | < 0.398 µM | < 20 µM
CCCCC[C@@H](C(=O)NCNC(=O)c1cccc(-c2ccc(C(C)(C)C(=O)O)cc2)n1)[C@@H](CC)N(O)C=O | < 0.251 µM | < 0.631 µM | < 0.126 µM | < 0.398 µM | < 20 µM
CCCCC[C@H](CN(O)C=O)C(=O)NCNC(=O)c1cccc(-c2cccc(OC)c2F)n1 | < 0.251 µM | < 0.631 µM | < 0.126 µM | < 0.398 µM | < 20 µM
CCCCC[C@H](CN(O)C=O)C(=O)NCNC(=O)c1cccc(-c2cc(OCC)cc(C(=O)O)c2)n1 | < 0.251 µM | < 0.631 µM | < 0.126 µM | < 0.398 µM | < 20 µM
CCCCC[C@@H](C(=O)NCNC(=O)c1cccc(-c2ccc(P(=O)(O)O)c(OCC)c2)n1)[C@@H](CC)N(O)C=O | < 0.251 µM | < 0.631 µM | < 0.126 µM | < 0.398 µM | < 20 µM
CCCCC[C@H](CN(O)C=O)C(=O)NCNC(=O)c1cccc(-c2ccc(F)cc2)n1 | < 0.251 µM | < 0.631 µM | < 0.126 µM | < 0.398 µM | < 20 µM
CCCCC[C@@H](C(=O)NCNC(=O)c1cccc(-c2cccc(C(=O)O)c2C)n1)[C@@H](CC)N(O)C=O | < 0.251 µM | < 0.631 µM | < 0.126 µM | < 0.398 µM | < 20 µM
CCCCC[C@H](CN(O)C=O)C(=O)NCNC(=O)c1cccc(-c2ccccc2)c1 | < 0.251 µM | < 0.631 µM | < 0.126 µM | < 0.398 µM | < 20 µM
CCCCC[C@H](CN(O)C=O)C(=O)NCNC(=O)c1ccc(F)c(-c2ccccc2)n1 | < 0.251 µM | < 0.631 µM | < 0.126 µM | < 0.398 µM | < 20 µM
CCCCC[C@H](CN(O)C=O)C(=O)NCNC(=O)c1cccc(-c2ccc(F)cc2F)n1 | < 0.251 µM | < 0.631 µM | < 0.126 µM | < 0.398 µM | < 20 µM
